Test results as given in patent publication US10596151B2, “Methods and pharmaceutical compositions for reducing arterial stiffness with a combination of a therapeutic agent blocking the angiotensin receptor and a therapeutic agent inhibiting the NEP enzyme” (Novartis AG, priority 2015, dated 2020).

Tests used:
[1] = test system: elderly patients (≥60 years) with essential hypertension; assay: […] study: central aortic pressures (CASP, CPP/CAPP, central DBP, central MAP) by SphygmoCor X-CEL; format: in vivo, human; details: for LSM change from baseline (SE) in mean CPP at Week 12 endpoint / LSM change from baseline (SE) in mean CASP at Week 12 endpoint / LSM change from baseline (SE) in mean CASP at Week 52 endpoint / LSM change from baseline (SE) in mean CPP at Week 52 endpoint: FAS; for LSM change from baseline (SE) in mean CPP at Week 12 endpoint / LSM change from baseline (SE) in mean CASP at Week 12 endpoint: monotherapy; for LSM change from baseline (SE) in mean CASP at Week 12 endpoint: LCZ696 400 mg/day, olmesartan 40 mg/day; for LSM change from baseline (SE) in mean CASP at Week 52 endpoint / LSM change from baseline (SE) in mean CPP at Week 52 endpoint: Week 52 endpoint (LOCF), add-on amlodipine/HCTZ allowed
Method: The term CAPP refers to central aortic PP. In the context of the present invention CAPP is measured with the SphygmoCor X-CEL System (AtCor Medical, Sydney, Australia) to non-invasively derive the ascending aortic pressure waveform from the brachial waveform using a validated generalised transfer function (GTF). A properly sized BP cuff is linked to a computer and software and the CASP, CAPP, augmentation pressure, and Alx are determined from the analysis of waveform by the system software. […]
The primary and secondary endpoints are changes from baseline in central aortic systolic pressure (CASP) and central aortic PP (CAPP) at week 12, respectively. Other secondary endpoints are the changes in CASP and CAPP at week 52. […] The primary variable will be analysed using a two-way analysis of covariance.
The SphygmoCor X-CEL System (AtCor Medical, Sydney, Australia) is being used to non-invasively derive the ascending aortic pressure waveform from the brachial waveform using a validated generalised transfer function (GTF).22 A properly sized BP cuff is linked to a computer and software and the CASP, CAPP, augmentation pressure, and Alx are determined from the analysis of waveform by the system software.
A sample size of 183 completers per group is targeted, which is calculated based on the primary efficacy variable, change from baseline in mean CASP at 12 weeks, assuming a standard deviation of 19 mm Hg. […] Assuming a 15% dropout rate, the total targeted sample size to be randomised is 432 patients (216 per group). The primary variable at the Week 12 endpoint will be analysed using a two-way analysis of covariance (ANCOVA), with treatment and region as factors and the baseline as a covariate. Mean CAPP at the Week 12 endpoint will be analysed using the same type of ANCOVA model used for the primary efficacy analysis. A two-sided significance at 0.05 level will be used for this analysis and a 95% confidence interval for the treatment difference will be provided.

[2] = test system: elderly patients (≥60 years) with essential hypertension; assay: […] study: mean sitting (brachial) blood pressure and pulse pressure; format: in vivo, human
Excerpt: (§1) The study enrolled patient from 5 Dec. 2012 to 8 Apr. 2015.
Superiority testing is also planned for the key secondary efficacy assessment, i.e. the reduction in mean central aortic PP (CAPP) after 12 weeks of treatment, and other secondary efficacy assessments such as mean CASP and CAPP after 52 weeks of treatment. Mean aPWV, msSBP, msDBP, msPP, mean ambulatory (ma) BP, maPP, and MAP will also be measured after 12 and 52 weeks of treatment.

[3] = test system: elderly patients (≥60 years) with essential hypertension; assay: […] study: 24-hour ambulatory brachial and central blood pressure (Mobil-O-Graph); format: in vivo, human
Excerpt: as §1
The 24-hour maCAP and maPWA will be monitored using the oscillometric device, Mobil-0-Graph (IEM, Stolberg, Germany) with integrated ARC solver algorithms (Austrian Institute of Technology, Vienna, Austria). The traditional Mobil-O-Graph ambulatory blood pressure monitoring (ABPM) device has been available for more than a decade and through several product generations.24-27 The actual blood pressure measuring unit was validated according to the British Hypertension Society (BHS) and the European Society of Hypertension (ESH) recommendations.24,26 The method equipped with a GTF to derive aortic pressure waveforms28 is based on brachial readings acquired in the course of the conventional pressure measurement at diastolic level.
During the signal acquisition procedure, the received raw signals are separated into single waves and checked for their plausibility by means of extreme values and corresponding wavelengths using a cross-correlation approach. Poor waveforms are removed from further processing. After applying the GTF to each single waveform, the procedure is repeated.
With respect to legal issues, the Mobil-O-Graph maPWA monitor with integrated ARC solver algorithms holds approvals from CE, FDA, and JPAL (amongst others).

[4] = test system: elderly patients (≥60 years) with essential hypertension; assay: PARAMETER study: safety and tolerability assessments; details: human, in vivo, 52 weeks
Excerpt: The inclusion criteria in the study was designed to enroll patients which met the profile of elderly patients with systolic hypertension and a wide pulse pressure, a characteristic reflective of large artery (aortic) stiffness. […] The study enrolled patient from 5 Dec. 2012 to 8 Apr. 2015.
This was a 52-week study, involving 50 centers from 12 countries (across Europe, South America, Asia and the United States). […] After 12 weeks, patients with uncontrolled BP (msSBP>140 mmHg and/or mean sitting diastolic blood pressure [msDBP]>90 mmHg) were allowed the use of add-on antihypertensives (amlodipine [2.5-5.0 mg] and then hydrochlorothiazide [6.25-25.0 mg]) as needed, at an interval of 4 weeks up to Week 24.
Safety and tolerability assessments include regular monitoring and recording of all adverse events (AEs) and concomitant medications or significant non-drug therapies. Evaluations of routine blood chemistries, blood counts with white cell differential and urine analyses, physical examinations, electrocardiograms (ECGs), and monitoring of vital signs will be performed at regular intervals.

## CCCc1nc(C(C)(C)O)c(C(=O)O)n1Cc1ccc(-c2ccccc2-c2nnn[nH]2)cc1 [Olmesartan, reference compound]
[1]
  LSM change from baseline (SE) in mean CPP at Week 12 endpoint: −3.96 (0.69) mmHg
  LSM change from baseline (SE) in mean CASP at Week 12 endpoint: −8.90 (1.01) mmHg
  LSM change from baseline (SE) in mean CASP at Week 52 endpoint: −14.70 (0.96) mmHg
  LSM change from baseline (SE) in mean CPP at Week 52 endpoint: −6.65 (0.69) mmHg
[1]; listed as olmesartan
  LSM change from baseline (SE) in mean CASP at Week 12 endpoint: −8.90 mmHg
  LSM change from baseline (SE) in mean CPP at Week 12 endpoint: −3.96 mmHg
  LSM change from baseline (SE) in mean CASP at Week 52 endpoint: −14.70 mmHg
  LSM change from baseline (SE) in mean CPP at Week 52 endpoint: −6.65 mmHg
[1]; mean sitting central diastolic BP, 12 weeks
  Change from baseline to 12 weeks, mscDBP: −5.0 mmHg
[1]; mean sitting central diastolic BP, 52 weeks
  Change from baseline to 52 weeks, mscDBP: −8.1 mmHg
[1]; mean sitting central mean arterial pressure, 12 weeks, mean
  Change from baseline to 12 weeks, mscMAP: −6.7 mmHg
[1]; mean sitting central mean arterial pressure, 52 weeks, mean
  Change from baseline to 52 weeks, mscMAP: −9.1 mmHg
[2]; mean sitting diastolic BP, 12 weeks, mean
  Change from baseline to 12 weeks, msDBP: −5.2 mmHg
[2]; mean sitting diastolic BP, 52 weeks, mean
  Change from baseline to 52 weeks, msDBP: −8.5 mmHg
[2]; mean sitting mean arterial pressure, 12 weeks
  Change from baseline to 12 weeks, msMAP: −8.6 mmHg
[2]; mean sitting mean arterial pressure, 52 weeks
  Change from baseline to 52 weeks, msMAP: −12.4 mmHg
[2]; mean sitting pulse pressure, 12 weeks, mean
  Change from baseline to 12 weeks, msPP: −4.5 mmHg
[2]; mean sitting pulse pressure, 52 weeks, mean
  Change from baseline to 52 weeks, msPP: −7.6 mmHg
[2]; mean sitting systolic BP, 12 weeks, mean
  Change from baseline to 12 weeks, msSBP: −9.7 mmHg
[2]; mean sitting systolic BP, 52 weeks, mean
  Change from baseline to 52 weeks, msSBP: −16.0 mmHg
[3]; mean ambulatory central diastolic BP, 12 weeks, mean
  Change from baseline to 12 weeks, macDBP: −5.8 mmHg
[3]; mean ambulatory central diastolic BP, 52 weeks, mean
  Change from baseline to 52 weeks, macDBP: −9.1 mmHg
[3]; mean ambulatory central mean arterial pressure, 12 weeks, mean
  Change from baseline to 12 weeks, macMAP: −6.75 mmHg
[3]; mean ambulatory central mean arterial pressure, 52 weeks, mean
  Change from baseline to 52 weeks, macMAP: −10.6 mmHg
[3]; mean ambulatory central pulse pressure, 12 weeks, mean
  Change from baseline to 12 weeks, macPP: −2.9 mmHg
[3]; mean ambulatory central pulse pressure, 52 weeks, mean
  Change from baseline to 52 weeks, macPP: −4.6 mmHg
[3]; mean ambulatory central systolic BP, 12 weeks
  Change from baseline to 12 weeks, macSBP: −8.7 mmHg
[3]; mean ambulatory central systolic BP, 52 weeks
  Change from baseline to 52 weeks, macSBP: −13.7 mmHg
[3]; mean ambulatory diastolic BP, 12 weeks
  Change from baseline to 12 weeks, maDBP: −5.5 mmHg
[3]; mean ambulatory diastolic BP, 52 weeks
  Change from baseline to 52 weeks, maDBP: −8.4 mmHg
[3]; mean ambulatory mean arterial pressure, 12 weeks, mean
  Change from baseline to 12 weeks, maMAP: −7.1 mmHg
[3]; mean ambulatory mean arterial pressure, 52 weeks, mean
  Change from baseline to 52 weeks, maMAP: −11.1 mmHg
[3]; mean ambulatory pulse pressure, 12 weeks
  Change from baseline to 12 weeks, maPP: −3.7 mmHg
[3]; mean ambulatory pulse pressure, 52 weeks
  Change from baseline to 52 weeks, maPP: −5.9 mmHg
[3]; mean ambulatory systolic BP, 12 weeks
  Change from baseline to 12 weeks, maSBP: −9.1 mmHg
[3]; mean ambulatory systolic BP, 52 weeks
  Change from baseline to 52 weeks, maSBP: −14.3 mmHg
[4]
  percentage of patients who discontinued the study: 18.7%
  percentage of patients who discontinued the study due to an AE: 5.3%
  percentage of patients with AEs: 53.8%
  percentage of patients with SAEs: 5.8%
